Measurements: US6767890B1, “Peptides having anti-cancer and anti-inflammatory activity” (priority 1998, dated 2004)
Values joined by “and” are separate entries in the source; they are usually repeats but may differ in a detail not shown here. Identical values can stand only once.

Assays:
[1] = test system: croton oil-induced ear inflammation; assay: Mouse-ear edema model (croton oil); type: in vivo; details: 20 λ of 5% peptide in carbopol topically 30 min after 10% croton oil, ear biopsy weight at 24 hrs
Text: Mouse-ear edema model. Croton-oil, which contains a variety of phorbol esters, and arachidonic acid (AA) are standard inducers of inflammation in mouse ears when applied topically. Phorbol esters, especially phorbol myristyl acetate (PMA), activate one or more isozymes of the ubiquitous membrane receptor, protein kinase C (PKC), which in turn initiates several metabolic cascades leading to inflammation. As is a substrate for one of these cascades, leading to prostaglandin and leukotriene production, both of which are inflammatory. Inhibition of such inflammation by a putative bioactive agent is considered a generalized indicator of potential pharmacologic activity.
Male Swiss Webster mice (15-20 g) were purchased from B&K Universal, Kent, Wash. and maintained in the laboratory for one day prior to entering the experiment. At t=0, the ventral side of both ears of each mouse was challenged topically with 10 λ of 10% croton oil in acetone. […] The animals were sacrificed by cervical dislocation at t=24 hrs, the ears removed, and a biopsy take from each ear with an 8 mm punch. The biopsy was immediately weighed on a 4-place balance.

[2] = biological target: Ca++ Ch.-L, Dihydropyridine (Rattus norvegicus, UniProt P22002); assay: Ca++ Ch.-L, Dihydropyridine radioligand binding; details: 10.0 μM; specific binding of [3H]Nitrendipine; negative = stimulation
Ca++ Ch.-L, Dihydropyridine, sequence (P22002 whole entry): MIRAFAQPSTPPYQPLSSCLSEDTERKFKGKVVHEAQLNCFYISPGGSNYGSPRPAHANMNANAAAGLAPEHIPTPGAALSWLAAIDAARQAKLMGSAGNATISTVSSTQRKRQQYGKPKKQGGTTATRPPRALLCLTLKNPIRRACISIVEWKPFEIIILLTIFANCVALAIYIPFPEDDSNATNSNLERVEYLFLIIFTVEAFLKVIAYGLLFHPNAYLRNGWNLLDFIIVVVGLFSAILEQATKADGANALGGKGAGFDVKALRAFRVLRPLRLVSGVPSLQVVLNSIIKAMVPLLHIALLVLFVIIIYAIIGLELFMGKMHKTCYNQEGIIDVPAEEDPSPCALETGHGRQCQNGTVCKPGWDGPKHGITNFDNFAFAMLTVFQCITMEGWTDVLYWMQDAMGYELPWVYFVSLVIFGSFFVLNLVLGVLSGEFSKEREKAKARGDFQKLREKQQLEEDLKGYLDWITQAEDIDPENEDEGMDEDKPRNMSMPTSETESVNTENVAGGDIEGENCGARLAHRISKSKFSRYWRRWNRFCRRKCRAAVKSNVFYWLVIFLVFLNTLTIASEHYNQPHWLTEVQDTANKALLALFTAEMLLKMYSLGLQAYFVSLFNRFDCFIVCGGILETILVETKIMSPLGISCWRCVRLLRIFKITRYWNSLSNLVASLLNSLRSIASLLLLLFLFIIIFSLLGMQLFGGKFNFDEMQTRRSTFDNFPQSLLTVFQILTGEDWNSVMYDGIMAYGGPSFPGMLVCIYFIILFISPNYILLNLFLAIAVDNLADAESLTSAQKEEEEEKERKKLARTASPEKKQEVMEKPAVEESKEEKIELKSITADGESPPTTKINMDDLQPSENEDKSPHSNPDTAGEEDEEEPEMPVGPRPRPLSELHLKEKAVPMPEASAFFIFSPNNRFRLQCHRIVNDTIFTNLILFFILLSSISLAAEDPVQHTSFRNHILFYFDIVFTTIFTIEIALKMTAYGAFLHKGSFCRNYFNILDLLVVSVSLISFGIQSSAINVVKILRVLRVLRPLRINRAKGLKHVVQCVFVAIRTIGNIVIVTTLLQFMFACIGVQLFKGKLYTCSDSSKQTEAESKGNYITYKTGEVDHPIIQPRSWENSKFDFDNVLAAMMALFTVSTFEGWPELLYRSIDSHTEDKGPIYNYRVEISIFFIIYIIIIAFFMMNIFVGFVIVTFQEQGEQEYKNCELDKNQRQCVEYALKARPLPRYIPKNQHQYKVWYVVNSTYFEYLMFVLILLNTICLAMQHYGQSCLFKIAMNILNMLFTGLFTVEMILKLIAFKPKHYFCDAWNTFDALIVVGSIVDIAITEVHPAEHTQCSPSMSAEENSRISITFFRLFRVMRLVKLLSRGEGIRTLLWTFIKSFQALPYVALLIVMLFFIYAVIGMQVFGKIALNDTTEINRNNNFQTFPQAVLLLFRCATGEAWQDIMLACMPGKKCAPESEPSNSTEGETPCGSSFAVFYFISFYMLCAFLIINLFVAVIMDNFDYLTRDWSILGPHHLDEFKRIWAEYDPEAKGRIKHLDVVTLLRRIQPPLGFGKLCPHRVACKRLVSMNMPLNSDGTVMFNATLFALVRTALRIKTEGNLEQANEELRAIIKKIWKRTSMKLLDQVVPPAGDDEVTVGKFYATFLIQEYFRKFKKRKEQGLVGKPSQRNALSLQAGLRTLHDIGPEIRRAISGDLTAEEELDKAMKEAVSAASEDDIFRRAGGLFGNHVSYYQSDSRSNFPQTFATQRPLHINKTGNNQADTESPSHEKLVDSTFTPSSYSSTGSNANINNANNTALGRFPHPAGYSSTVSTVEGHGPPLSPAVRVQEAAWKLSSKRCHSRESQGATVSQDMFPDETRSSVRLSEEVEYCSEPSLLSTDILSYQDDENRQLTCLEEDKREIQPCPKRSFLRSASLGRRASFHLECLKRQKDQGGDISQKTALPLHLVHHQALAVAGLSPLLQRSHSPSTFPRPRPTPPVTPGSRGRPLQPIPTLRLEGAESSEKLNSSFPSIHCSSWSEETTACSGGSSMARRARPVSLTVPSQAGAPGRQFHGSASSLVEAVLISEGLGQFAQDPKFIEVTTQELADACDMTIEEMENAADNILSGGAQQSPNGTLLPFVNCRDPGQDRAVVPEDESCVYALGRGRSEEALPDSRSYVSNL
Procedure: (§1) The peptide was further screened in vitro in a variety of enzyme and biochemical assays. Methods employed were adapted from the scientific literature to maximize reliability and reproducibility.
(§2) Results presented in Table 10, “Results,” are the average of duplicate determinations, unless otherwise noted.
Radioligand binding assays were performed under conditions described in Table 8, “Experimental Conditions.” Radioligands employed in this study are given in Table 8, and commercial sources and catalog numbers of the radioligands are provided in Table 7, “Material Sources.” Unlabeled, blocking ligands employed this study are listed in Table 8, “Experimenal Conditions,” along with the commercial sources and catalog number of the unlabeled ligand. The concurrent reference compound (control) employed in each assay is listed in Table 9, “Reference Compound Data,” along with the commercial supplier and catalog number of the compound. Where receptors have been obtained through recombinant expression techniques, the species from which the cDNA was obtained, and the type of expression system employed (mammalian, insect, bacterial) is also given Table 7.
Maximum total binding and nonspecific binding were determined each time each assay was run. Nonspecific binding was defined as the proportion of total binding not displaced by unlabeled ligand specific for the receptor. […]

Interleukin-6 = biological target: T1, Interleukin-6 (Homo sapiens, UniProt P08887); assay: Interleukin-6 radioligand binding; details: 10.0 μM; specific binding of [125I]Interleukin-6; negative = stimulation
T1 construct: human U266; endogenous in cells; host or cells: U266 cells
T1 sequence (P08887 20-468): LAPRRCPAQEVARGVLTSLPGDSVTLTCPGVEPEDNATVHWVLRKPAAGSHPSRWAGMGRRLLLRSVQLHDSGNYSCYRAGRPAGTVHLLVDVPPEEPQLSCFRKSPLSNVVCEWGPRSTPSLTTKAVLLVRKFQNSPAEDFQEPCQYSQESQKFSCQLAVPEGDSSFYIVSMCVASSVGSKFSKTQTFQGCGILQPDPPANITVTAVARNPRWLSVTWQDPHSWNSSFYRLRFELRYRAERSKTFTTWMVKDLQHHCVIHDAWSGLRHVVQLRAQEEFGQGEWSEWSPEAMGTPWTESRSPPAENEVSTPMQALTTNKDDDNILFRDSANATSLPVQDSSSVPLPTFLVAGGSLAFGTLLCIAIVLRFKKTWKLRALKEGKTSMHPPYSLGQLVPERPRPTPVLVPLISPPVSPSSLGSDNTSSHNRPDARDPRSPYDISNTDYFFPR
Procedure: as §1, with “reproducibility. The primary literature reference for each assay is listed in Table 11 opposite the results for each assay.” for “reproducibility.”
as §2
Reference compounds were tested concurrently at 5 concentrations as an integral part of each assay to ensure the validity of the results obtained. […]
(§3) Maximum total binding and nonspecific binding were determined each time each assay was run. […]
(§4) Where inhibition constants (Ki) are presented, the Ki values were calculated using the equation of Cheng and Prusoff (Cheng, Y., Prusoff, W. H., Biochem. Pharmacol. […], 1973) using the observed IC50 of the tested compound, the concentration of radioligand employed in the assay, and the historical values for the Kd of the ligand (obtained experimentally). Where presented, the Hill Coefficient (nH), defining the scope of the competitive binding curve, was calculated using GraphPad Prism. […] Where IC50, Ki, and/or Hill Slope data is presented without Standard Error of the Mean (SEM), data are insufficient to be quantitative, and the values presented (Ki, IC50, nH) should be interpreted with caution. […]

Histamine H3 = biological target: T2, Histamine H3 (Rattus norvegicus, UniProt Q9QYN8); assay: Histamine H3 radioligand binding; details: 10.0 μM; specific binding of [3H]NAMH; negative = stimulation
T2 construct: rat brain; from tissue; host or cells: rat brain
T2 sequence (Q9QYN8 whole entry): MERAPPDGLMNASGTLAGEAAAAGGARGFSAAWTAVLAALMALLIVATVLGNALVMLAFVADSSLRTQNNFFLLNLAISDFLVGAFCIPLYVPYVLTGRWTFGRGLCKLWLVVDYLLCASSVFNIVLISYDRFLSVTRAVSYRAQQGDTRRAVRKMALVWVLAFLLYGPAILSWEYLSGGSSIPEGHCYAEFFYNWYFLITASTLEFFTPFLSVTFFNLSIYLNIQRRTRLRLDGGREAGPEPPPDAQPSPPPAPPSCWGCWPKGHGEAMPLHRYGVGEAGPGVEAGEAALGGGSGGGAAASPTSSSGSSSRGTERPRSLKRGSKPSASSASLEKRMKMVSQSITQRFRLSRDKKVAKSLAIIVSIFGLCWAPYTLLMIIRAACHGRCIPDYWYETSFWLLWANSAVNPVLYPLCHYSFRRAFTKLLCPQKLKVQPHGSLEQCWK
Procedure: as §1, with “reproducibility. The primary literature reference for each assay is listed in Table 11 opposite the results for each assay.” for “reproducibility.”
as §2
(§5) Reference compounds were tested concurrently at 5 concentrations as an integral part of each assay to ensure the validity of the results obtained.
Radioligand binding assays were performed under conditions described in Table 8, “Experimental Conditions.” Radioligands employed in this study are given in Table 8, and commercial sources and catalog numbers of the radioligands are provided in Table 7, “Material Sources.” Unlabeled, blocking ligands employed this study are listed in Table 8, “Experimenal Conditions,” along with the commercial sources and catalog number of the unlabeled ligand. The concurrent reference compound (control) employed in each assay is listed in Table 9, “Reference Compound Data,” along with the commercial supplier and catalog number of the compound. […]
as §3, §4

[3] = test system: ovalbumin-induced bronchoconstriction; assay: Pulmonary, Histamine H3 (ovalbumin-induced bronchoconstriction); type: in vivo, guinea pig; details: Peptide PO 10 mg/kg, R-α-methylhistamine IV 30 mg/kg
Procedure: For in vivo assay, distilled water and saline was used as vehicle in oral and intraperitoneal administration, respectively. Dosing volume was 20 ml/kg for mice or 10 ml/kg for rats.
A group of Duncan Hartley derived male or female guinea pigs weighing 250±50 gms were anesthetized with pentobarbital sodium (50 mg/kg IP plus an additional 15 mg/kg IP if required) and succinylcholine chloride (2 mg/animal IP) was subsequently administered to prevent spontaneous respiration. Body temperature was maintained at 37° to 38° C. The trachea was cannulated and the guinea pig ventilated with a Harvard rodent respirator in a closed system. Tracheal pressure (TP) was recorded through a side-arm of the cannula connected to a P23ID Statham transducer. Respiratory rate set at 50 strokes/minute with a stroke volume (approximately 1 ml/100 g) sufficient to produce a baseline tracheal pressure of 6 cm H2O. Mean arterial pressure was monitored from a cannulated carotid artery, and heart rate was obtained from chest electrodes arranged for lead II. The jugular vein was cannulated for IV vehicle or drug administration in a volume of 1 ml/kg. Guinea pigs were sensitized with IP injections of ovalbumin 0.5 μg+Al(OH)3 1 mg (0.5 ml/animal) on days 1, and boosted with same dosage of ovalbumin and Al(OH)3 vaccine on day 8; and the animals were ready to be challenged between days 19 and 23 to get a submaximal ovalbumin (50 μg/kg IV)-induced bronchoconstriction, reflected as an increase in tracheal pressure (cm H2O). […]. Test substances were administered PO (10 mg/kg) at 60 minutes before ovalbumin (50 μg/kg IV) challenge in 3 guinea pigs. Tracheal pressure, blood pressure and heart rate were measured immediately before and after ovalbumin challenge.

[4] = test system: T3, Ca++/Calmodulin Dep. PK II; assay: Ca++/Calmodulin Dep. PK II enzyme assay; type: biochemical, rat; details: 100.0 μM; average of duplicate; negative = stimulation
T3 construct: other: 100.0 μM; average of duplicate; negative = stimulation
Procedure: as §1, with “reproducibility. The primary literature reference for each assay is listed in Table 11 opposite the results for each assay.” for “reproducibility.”
as §2, §5
(§6) Enzyme assays were performed under conditions described in Table 8, “Experimental Conditions.”. The commercial suppliers and catalog numbers of substrates employed in this study are given in Table 7, “Material Sources.” The name, commercial source, and catalog numbers of concurrent reference compounds (controls) employed in this study are given in Table 9, “Reference Compound Data.” The reaction catalyzed by each enzyme is listed in Table 8, “Experimental Conditions.”
(§7) Biochemical assay results are presented in Table 10, as the percent inhibition of specific binding or activity, and unless noted are the average of duplicate tubes tested at each concentration.

Cyclooxygenase-2 = biological target: T4, Cyclooxygenase-2 (Ovis aries, UniProt P79208); assay: Cyclooxygenase-2 enzyme assay; type: biochemical, sheep; details: 300.0 μM; average of duplicate; negative = stimulation
T4 construct: sheep placenta; from tissue; host or cells: sheep placenta
T4 sequence (P79208 17-603): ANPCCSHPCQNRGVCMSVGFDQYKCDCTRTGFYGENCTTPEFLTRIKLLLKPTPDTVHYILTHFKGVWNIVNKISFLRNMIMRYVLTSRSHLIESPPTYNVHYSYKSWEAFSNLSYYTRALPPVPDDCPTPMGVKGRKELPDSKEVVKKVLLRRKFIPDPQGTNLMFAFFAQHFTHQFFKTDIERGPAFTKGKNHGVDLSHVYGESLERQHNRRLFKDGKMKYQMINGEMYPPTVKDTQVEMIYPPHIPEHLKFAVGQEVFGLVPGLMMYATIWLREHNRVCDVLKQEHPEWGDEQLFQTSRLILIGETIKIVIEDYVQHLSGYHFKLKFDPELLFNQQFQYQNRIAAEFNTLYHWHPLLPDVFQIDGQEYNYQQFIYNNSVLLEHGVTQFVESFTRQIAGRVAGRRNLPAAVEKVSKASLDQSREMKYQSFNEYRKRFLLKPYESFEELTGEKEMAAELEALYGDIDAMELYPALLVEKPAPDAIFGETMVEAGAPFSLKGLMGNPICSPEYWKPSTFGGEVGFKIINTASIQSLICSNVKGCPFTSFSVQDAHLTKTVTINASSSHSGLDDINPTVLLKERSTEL
Procedure: as §1
Unless otherwise indicated, the peptide was tested in duplicate at the concentrations indicated for each assay. Results presented in Table 10, “Results,” are the average of duplicate determinations, unless otherwise noted.
as §6, §7

LEU-PRO-PRO-SER-ARG [Peptide]
reduction in swelling compared to vehicle-only treated ears [1]: 61%
% Inhibition [2]: 2%
% Inhibition (Interleukin-6): 13%
% Inhibition (Histamine H3): −13%
Inc. of TP X ± SEM ([3]; group mean, N=3): 31.5 ± 2.3 cm H2O
Inc. of TP Ind. ([3]; individual guinea pig, tracheal pressure after ovalbumin 50 μg/kg IV): 27.5 cm H2O and 35.5 cm H2O and 31.5 cm H2O
% INH. ([3]; inhibition of induced bronchoconstriction relative to vehicle): −6.8%
% Inhibition [4]: 12%
% Inhibition (Cyclooxygenase-2): 2%
